The values below come from patent US8153596B2, “Use of SH2 STAT3/STAT1 peptidomimetics as anticancer drugs” (University of South Florida, priority 2006, dated 2012).

Molecules are shown by their SMILES. Values joined by “and” are separate entries in the source; they are usually repeats but may differ in a detail not shown here. Identical values can stand only once. Like-named read-outs stand apart in the source and are kept apart here.

Experiment [1] has as its system v-Src transformed fibroblasts. The following applies: constitutively active STAT3-dependant v-Src transformed fibroblasts; cited from earlier work.
For experiment [2], the target named is T1, STAT3:STAT3 (Homo sapiens, UniProt P40763).
T1 construct: Nuclear extracts containing active STAT1 and STAT3 were preincubated with or without peptidomimetics; endogenous in cells; host or cells: nuclear extracts
Kind of experiment: EMSA of STAT3:STAT3 dimer DNA binding, nuclear extracts preincubated with peptidomimetic, radiolabeled hSIE probe. Type of experiment: biochemical. How it is done:
(§1) Evaluation was carried out through pre-incubation of specific concentrations of peptidomimetics with nuclear extracts containing STAT1 and STAT3 for 30 minutes at room temperature before incubation with radiolabeled hSIE oligonucleotide probes and ESMA analysis. Standard peptide synthetic procedures using HBTU and DIPEA were employed to furnish the library of functionalized inhibitors.
as §1
For orientation: Mobility shift assays separate free from complexed probe on a gel.

The target of experiment [3] is T2, STAT1:STAT1 (Homo sapiens, UniProt P42224).
T2 construct: Nuclear extracts containing active STAT1 and STAT3 were preincubated with or without peptidomimetics; endogenous in cells; host or cells: nuclear extracts
T2 sequence (P42224 2-750 limits assumed): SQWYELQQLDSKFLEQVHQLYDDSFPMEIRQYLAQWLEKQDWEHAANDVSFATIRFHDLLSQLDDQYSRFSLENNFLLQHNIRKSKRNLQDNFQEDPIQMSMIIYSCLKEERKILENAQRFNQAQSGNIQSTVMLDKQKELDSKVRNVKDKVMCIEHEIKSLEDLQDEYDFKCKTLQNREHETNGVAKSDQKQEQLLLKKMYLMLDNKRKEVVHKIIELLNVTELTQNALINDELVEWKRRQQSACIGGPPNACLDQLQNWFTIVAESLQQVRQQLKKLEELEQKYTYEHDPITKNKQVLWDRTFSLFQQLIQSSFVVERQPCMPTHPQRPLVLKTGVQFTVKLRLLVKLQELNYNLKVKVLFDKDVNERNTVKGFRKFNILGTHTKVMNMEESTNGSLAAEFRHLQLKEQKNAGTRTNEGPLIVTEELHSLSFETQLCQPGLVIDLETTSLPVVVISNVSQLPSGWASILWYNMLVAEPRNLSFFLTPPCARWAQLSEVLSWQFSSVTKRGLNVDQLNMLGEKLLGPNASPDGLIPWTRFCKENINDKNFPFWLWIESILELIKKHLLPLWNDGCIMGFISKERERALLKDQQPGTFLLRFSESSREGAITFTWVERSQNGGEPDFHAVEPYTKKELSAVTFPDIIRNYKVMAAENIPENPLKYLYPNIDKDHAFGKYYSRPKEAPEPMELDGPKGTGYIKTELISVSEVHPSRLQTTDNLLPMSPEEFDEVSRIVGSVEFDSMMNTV
In words: EMSA of STAT1:STAT1 dimer DNA binding, nuclear extracts preincubated with peptidomimetic, radiolabeled hSIE probe. Type of experiment: biochemical. The procedure:
as §1, §1

T1 sequence (P40763 2-770 limits assumed, species assumed): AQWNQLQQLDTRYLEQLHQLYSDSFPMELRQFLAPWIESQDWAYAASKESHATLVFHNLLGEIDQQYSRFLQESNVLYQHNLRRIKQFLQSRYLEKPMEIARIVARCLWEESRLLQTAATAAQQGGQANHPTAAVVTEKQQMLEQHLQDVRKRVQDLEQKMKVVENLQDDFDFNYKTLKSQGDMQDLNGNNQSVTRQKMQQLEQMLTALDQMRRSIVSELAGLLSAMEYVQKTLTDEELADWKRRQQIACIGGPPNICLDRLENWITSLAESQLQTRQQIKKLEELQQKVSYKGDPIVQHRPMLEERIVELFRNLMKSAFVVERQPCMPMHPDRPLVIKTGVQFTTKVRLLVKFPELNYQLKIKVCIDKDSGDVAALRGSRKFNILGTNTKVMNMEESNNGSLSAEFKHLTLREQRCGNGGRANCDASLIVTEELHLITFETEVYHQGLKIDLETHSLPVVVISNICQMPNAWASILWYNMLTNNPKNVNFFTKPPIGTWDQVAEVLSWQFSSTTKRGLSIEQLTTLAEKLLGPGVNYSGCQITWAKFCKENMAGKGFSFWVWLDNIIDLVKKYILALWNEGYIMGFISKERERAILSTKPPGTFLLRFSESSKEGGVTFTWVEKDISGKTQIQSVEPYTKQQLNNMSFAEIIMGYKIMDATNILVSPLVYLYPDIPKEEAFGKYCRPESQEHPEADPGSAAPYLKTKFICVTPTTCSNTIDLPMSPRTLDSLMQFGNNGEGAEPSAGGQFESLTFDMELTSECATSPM

As for `CC(C)CC(NC(=O)C(Cc1ccc(OP(=O)(O)O)cc1)NC(=O)c1ccc(C#N)cc1)C(=O)O` (stereo not shown) [ISS610], the cell growth suppression result in experiment [1] is “suppress cell growth significantly”.
The IC50 is the point on the concentration scale where inhibition reaches its midpoint. Consider `CC(C)CC(NC(=O)C(Cc1ccc(OP(=O)(O)O)cc1)NC(=O)c1ccc(C#N)cc1)C(=O)NC(C)C` (stereo not shown) [ISS834], for which the figures for the IC50 in experiment [2] and in experiment [3] were 760 µM and 21 µM, respectively.
The like results for `CC(C)CC(NC(=O)C(Cc1ccc(OP(=O)(O)O)cc1)NC(=O)c1ccc(C#N)cc1)C(=O)NC1CCCCC1` (stereo not shown) [ISS836] were, in that order, 605 µM and 25 µM.
With `COc1cccc(NC(=O)[C@H](CC(C)C)NC(=O)[C@H](Cc2ccc(OP(=O)(O)O)cc2)NC(=O)c2ccc(C#N)cc2)c1` [ISS840], the IC50 in experiment [2] (nuclear extracts preincubated 30 min at room temperature, hSIE probe, EMSA, means of three experiments, read-out: STAT3:STAT3 IC50 values) is 560 µM; in experiment [3] (nuclear extracts preincubated 30 min at room temperature, hSIE probe, EMSA, means of three experiments, read-out: STAT1:STAT1 IC50 values), 1.4 µM and 1 µM.
